Converted amounts (≈) assume the structure as drawn.
Key:
Format in all cases: functional
Nakaseomyces glabratus = experiment: Antifungal activity against Candida glabrata assessed as reduction in fungal cell growth incubated for 48 hrs by broth microdilution method
Pichia kudriavzevii = experiment: Antifungal activity against Candida krusei assessed as reduction in fungal cell growth incubated for 48 hrs by broth microdilution method
Aspergillus niger = experiment: Antifungal activity against Aspergillus niger assessed as reduction in fungal cell growth incubated for 72 hrs by broth microdilution method
Candida tropicalis = experiment: Antifungal activity against Candida tropicalis assessed as reduction in fungal cell growth incubated for 48 hrs by broth microdilution method
Cryptococcus neoformans = experiment: Antifungal activity against Cryptococcus neoformans LA314 assessed as reduction in fungal cell growth incubated for 48 hrs by broth microdilution method; settings: LA314, 48 h
Candida albicans = experiment: Antifungal activity against Candida albicans assessed as reduction in fungal cell growth incubated for 48 hrs by broth microdilution method
Candida parapsilosis = experiment: Antifungal activity against Candida parapsilosis ATCC 22019 assessed as reduction in fungal cell growth incubated for 48 hrs by broth microdilution method; settings: Lodderomyces parapsilosis, ATCC 22019, 48 h

Row | SMILES | MIC (Nakaseomyces glabratus) | MIC (Pichia kudriavzevii) | MIC (Aspergillus niger) | MIC (Candida tropicalis) | MIC (Cryptococcus neoformans) | MIC (Candida albicans) | MIC (Candida parapsilosis)
1 | C[C@H](n1nnc(CCN2CCN(c3cccc(Cl)c3)CC2)n1)[C@](O)(Cn1cncn1)c1ccc(F)cc1F | 0.25 to 16 µg/mL (≈ 0.46 to 29.4 µM) | 0.25 to 16 µg/mL (≈ 0.46 to 29.4 µM) | 0.25 to 16 µg/mL (≈ 0.46 to 29.4 µM) | 0.25 to 16 µg/mL (≈ 0.46 to 29.4 µM) | 0.25 to 16 µg/mL (≈ 0.46 to 29.4 µM) | 0.25 to 16 µg/mL (≈ 0.46 to 29.4 µM) | 0.25 to 16 µg/mL (≈ 0.46 to 29.4 µM)
2 | C[C@H](n1nnnc1CCN1CCN(c2ccccc2Cl)CC1)[C@](O)(Cn1cncn1)c1ccc(F)cc1F | 0.12 to 16 µg/mL (≈ 0.221 to 29.4 µM) | 0.12 to 16 µg/mL (≈ 0.221 to 29.4 µM) | 0.12 to 16 µg/mL (≈ 0.221 to 29.4 µM) | 0.12 to 16 µg/mL (≈ 0.221 to 29.4 µM) | 0.12 to 16 µg/mL (≈ 0.221 to 29.4 µM) | 0.12 to 16 µg/mL (≈ 0.221 to 29.4 µM) | 0.12 to 16 µg/mL (≈ 0.221 to 29.4 µM)
3 | CC(n1nnnc1CCN1CCN(c2ccccn2)CC1)C(O)(Cn1cncn1)c1ccc(F)cc1F (stereo not drawn) | 0.5 to 16 µg/mL (≈ 0.979 to 31.3 µM) | 0.5 to 16 µg/mL (≈ 0.979 to 31.3 µM) | 0.5 to 16 µg/mL (≈ 0.979 to 31.3 µM) | 0.5 to 16 µg/mL (≈ 0.979 to 31.3 µM) | 0.5 to 16 µg/mL (≈ 0.979 to 31.3 µM) | 0.5 to 16 µg/mL (≈ 0.979 to 31.3 µM) | 0.5 to 16 µg/mL (≈ 0.979 to 31.3 µM)
4 | COc1ccc(N2CCN(CCc3nnn(CC(O)(Cn4cncn4)c4ccc(F)cc4F)n3)CC2)cc1 (stereo not drawn) | 1 to 16 µg/mL (≈ 1.9 to 30.4 µM) | 1 to 16 µg/mL (≈ 1.9 to 30.4 µM) | 1 to 16 µg/mL (≈ 1.9 to 30.4 µM) | 1 to 16 µg/mL (≈ 1.9 to 30.4 µM) | 1 to 16 µg/mL (≈ 1.9 to 30.4 µM) | 1 to 16 µg/mL (≈ 1.9 to 30.4 µM) | 1 to 16 µg/mL (≈ 1.9 to 30.4 µM)
5 | C[C@H](n1nnc(CCN2CCN(C(c3ccccc3)c3ccccc3)CC2)n1)[C@](O)(Cn1cncn1)c1ccc(F)cc1F | 0.25 to 16 µg/mL (≈ 0.417 to 26.7 µM) | 0.25 to 16 µg/mL (≈ 0.417 to 26.7 µM) | 0.25 to 16 µg/mL (≈ 0.417 to 26.7 µM) | 0.25 to 16 µg/mL (≈ 0.417 to 26.7 µM) | 0.25 to 16 µg/mL (≈ 0.417 to 26.7 µM) | 0.25 to 16 µg/mL (≈ 0.417 to 26.7 µM) | 0.25 to 16 µg/mL (≈ 0.417 to 26.7 µM)
6 | C[C@H](n1nnc(CCN2CCN(c3ccccn3)CC2)n1)[C@](O)(Cn1cncn1)c1ccc(F)cc1F | 0.25 to 16 µg/mL (≈ 0.49 to 31.3 µM) | 0.25 to 16 µg/mL (≈ 0.49 to 31.3 µM) | 0.25 to 16 µg/mL (≈ 0.49 to 31.3 µM) | 0.25 to 16 µg/mL (≈ 0.49 to 31.3 µM) | 0.25 to 16 µg/mL (≈ 0.49 to 31.3 µM) | 0.25 to 16 µg/mL (≈ 0.49 to 31.3 µM) | 0.25 to 16 µg/mL (≈ 0.49 to 31.3 µM)
7 | C[C@H](n1nnnc1CCN1CCN(c2ccc([N+](=O)[O-])cc2)CC1)[C@](O)(Cn1cncn1)c1ccc(F)cc1F | 0.12 to 16 µg/mL (≈ 0.216 to 28.9 µM) | 0.12 to 16 µg/mL (≈ 0.216 to 28.9 µM) | 0.12 to 16 µg/mL (≈ 0.216 to 28.9 µM) | 0.12 to 16 µg/mL (≈ 0.216 to 28.9 µM) | 0.12 to 16 µg/mL (≈ 0.216 to 28.9 µM) | 0.12 to 16 µg/mL (≈ 0.216 to 28.9 µM) | 0.12 to 16 µg/mL (≈ 0.216 to 28.9 µM)
8 | CC(n1nnc(CCN2CCN(c3cccc(C(F)(F)F)c3)CC2)n1)C(O)(Cn1cncn1)c1ccc(F)cc1F (stereo not drawn) | 1 to 16 µg/mL (≈ 1.73 to 27.7 µM) | 1 to 16 µg/mL (≈ 1.73 to 27.7 µM) | 1 to 16 µg/mL (≈ 1.73 to 27.7 µM) | 1 to 16 µg/mL (≈ 1.73 to 27.7 µM) | 1 to 16 µg/mL (≈ 1.73 to 27.7 µM) | 1 to 16 µg/mL (≈ 1.73 to 27.7 µM) | 1 to 16 µg/mL (≈ 1.73 to 27.7 µM)
9 | C[C@H](n1nnc(CCN2CCN(c3ccc(F)cc3)CC2)n1)[C@](O)(Cn1cncn1)c1ccc(F)cc1F | 0.25 to 16 µg/mL (≈ 0.474 to 30.3 µM) | 0.25 to 16 µg/mL (≈ 0.474 to 30.3 µM) | 0.25 to 16 µg/mL (≈ 0.474 to 30.3 µM) | 0.25 to 16 µg/mL (≈ 0.474 to 30.3 µM) | 0.25 to 16 µg/mL (≈ 0.474 to 30.3 µM) | 0.25 to 16 µg/mL (≈ 0.474 to 30.3 µM) | 0.25 to 16 µg/mL (≈ 0.474 to 30.3 µM)

Reference: ChEMBL document CHEMBL4393657, “Tetrazole hybrids and their antifungal activities” (2019)
